Results published in US6664406B1, “Nervonic acid derivatives, their preparation and use” (Croda International PLC, priority 1999, dated 2003).
Read-outs that look alike come from different tables or passages of the source.

Key:
[1] = rats and mice, up to 10 g/kg; reported in WO 96/34846; cited from earlier work
[2] = Nervonic acid composition of total polar lipid from rat brain (Example 9); type: in vivo; settings: after Example 6 treatments; NA:GLA at both low and high doses
Procedure: (§1) Upon termination of certain biological evaluations, rat or mice brains were extracted and the fatty acid composition of total polar lipids from rat/mouse brain was determined.
(§2) Biological material was sent for analysis to Dr J. Hendersen at the University of Stirling, Institute of Aquaculture, Scotland. Analyses were carried out on two batches of experiments (detailed respectively in Example 6 and Example 7).

[3] = Nervonic acid composition of total polar lipid from mouse brain (Example 9); type: in vivo; settings: CREAE-inoculated mice
Procedure: as §1, §2

[4] = system: chronic EAE in the Biozzi mouse model; assay: NA:NA and NA:GLA in ethyl oleate in chronic relapsing EAE (Example 7); type: in vivo; settings: for AG: Percentage of mice in the group / CFT: Percentage of mice in the group / CHLP: Percentage of mice in the group / HLH: Percentage of mice in the group / PFT: Percentage of mice in the group / PHLP: Percentage of mice in the group: ethyl oleate vehicle
Procedure: (§3) Male Biozzi mice weighing 30-35 g were injected in each flank with 0.15 mL of an emulsion containing lyophilised mouse spinal cord, phosphate buffered saline and incomplete Freund's adjuvant supplemented with Mycobacterium butyricum and Mycobacterium tuberculosis H37Ra.
(§4) 1: Partial Flaccid Tail (PFT), 2: Complete Flaccid Tail (CFT), 3: Impaired Righting Reflex (IRR), 4: Ataxic Gait (AG), 5: Hind Limb Hypotonia (HLH), 6: Partial Hind Limb Paralysis (PHLP), 7: Complete Hind Limb Paralysis (CHLP), 8: Moribund (M), 9: Dead (D).

[5] = system: CREAE in the Biozzi mouse model; assay: NA:NA and NA:GLA in Miglyol 810 in CREAE (Example 8); type: in vivo
Procedure: as §3, §4
Therefore, Miglyol appeared well-suited for use as a vehicle in subsequent studies to determine the efficacy of compounds in CREAE. Therefore, using Miglyol 810 as the new vehicle, prophylactic effects of NA:NA and NA:GLA were re-assessed on CREAE in the Biozzi mouse model (90% dilution, 1000 mg/kg/day, up to 43 days PI).

[6] = system: neurological EAE in the Lewis rat; settings: for Number diseased/total: 5 days prior to inoculation and 25 days PI
Procedure: Male Lewis rats, weighing 230-280 g on the day of inoculation, were injected in each rear footpad with 0.1 ml of an emulsion containing equal parts of guinea pig spinal cord; phosphate buffered saline (PBS) and incomplete Freund's adjuvant supplemented with 10 mg/ml Mycobacterium tuberculosis H37Ra.
Animals were weighed daily and assessed for neurological disease from day 7 post-inoculation (PI). Rats displaying symptoms of EAE were scored as follows: 1: flaccid tail (FT), 2: hind limb hypotonia (HLH), 3: partial hind limb paralysis (PHLP), 4: complete hind limb paralysis (CHLP), 5: moribund or dead.
NA:GLA (neat oil) was orally administered 5 days prior to inoculation and continued for 25 days PI, at a dose of 750 mg/kg body weight/day and 1000 mg/kg body weight/day. NA:DHA (neat oil) was given by an identical dosing regime at a dose of 500 mg/kg body weight/day. Control-sensitised animals received PBS vehicle or were undosed. Undosed, vehicle and low dose NA:GLA treatments contained 7 animals. Four rats received high dose NA:GLA and 3 rats were dosed with NA:DHA.

[7] = Miscibility / physical state of oral compositions in vehicle; type: physicochemical; settings: room temperature (about 20° C.)
Excerpt: Formulations of the present invention suitable for oral administration may be in the form of discrete units such as capsules, cachets, tablets or lozenges, each containing a predetermined amount of the active ingredient; in the form of a powder or granules; in the form of a solution or a suspension in an aqueous liquid or non-aqueous liquid; or in the form of an oil-in-water emulsion or a water-in-oil emulsion. The active ingredient may also be in the form of a bolus, electuary or paste. For such formulations, a range of dilutions of the active ingredient in the vehicle is suitable, such as from 1% to 99%, preferably 5% to 50% and more preferably 10% to 25% dilution. Depending upon the level of dilution, the formulation will be either a liquid at room temperature (in the region of about 20° C.) or a low-melting solid.

[8] = Biozzi mouse, 10% w/w in ethyl oleate, 1000 mg/kg body weight/day
[9] = acute phase, Biozzi mouse, 10% w/w in ethyl oleate, 1000 mg/kg body weight/day
[10] = relapse phase, Biozzi mouse, 10% w/w in ethyl oleate, 1000 mg/kg body weight/day
[11] = acute phase, Miglyol 810 vehicle, 1000 mg/kg/day
[12] = acute phase, Miglyol 810 vehicle, n=12, NA:GLA n=11
[13] = relapse phase, Miglyol 810 vehicle, 1000 mg/kg/day
[14] = relapse phase, Miglyol 810 vehicle, NA:GLA n=9, NA:NA n=11

CCCCC/C=C\C/C=C\C/C=C\CCCCC(=O)OCCCOC(=O)CCCC/C=C\C/C=C\C/C=C\CCCCC [GLA:GLA, 1,3-Di(z,z,z-6,9,12-Octadecatrienoyloxy)propane]
evidence of diarrhea (absence of toxicity) [1]: without evidence of diarrhea

CCCCC/C=C\C/C=C\C/C=C\CCCCC(=O)OCCCOC(=O)CCCCCCCCCCCCC/C=C\CCCCCCCC [NA:GLA, 1-(z-15-tetracosenoyloxy)-3-(z,z,z-6,9,12-octadecatrienoyloxy)propane]
NA levels in rat brain lipids compared to normal, undosed and vehicle treated animals [2]: marked increase of NA levels | NA levels in mouse brain lipids compared to undosed and vehicle [3]: enhancement of the NA levels in brain lipids | Acute and relapse symptoms (mean neurological scores) [4, 8]: markedly reduced | onset of relapse [4, 8]: delayed, but not significantly | Mean day of symptom loss [4, 9]: 30.0 ± 1.4 days | Mean day of symptom onset [4, 9]: 21.7 ± 4.2 days | Mean duration of symptoms [4, 9]: 5.7 ± 1.5 days | Number of dead mice [4, 9]: 0/10 | No. of diseased mice ([4]; acute phase, Biozzi mouse, […], oral 1000 mg/kg body weight/day, 5 days prior to inoculation and 43 days PI, n=10): 3/10 | AG: Percentage of mice in the group ([4]; acute phase, n=10): 20% | CFT: Percentage of mice in the group ([4]; acute phase, n=10): 20% | CHLP: Percentage of mice in the group ([4]; acute phase, n=10): 20% | HLH: Percentage of mice in the group ([4]; acute phase, n=10): 30% | PFT: Percentage of mice in the group ([4]; acute phase, n=10): 20% | PHLP: Percentage of mice in the group ([4]; acute phase, n=10): 20% | Mean day of symptom onset [4, 10]: 42.0 ± 1.0 days | No. of diseased mice [4, 10]: 3/10 | Number of dead mice [4, 10]: 0/10 | AG: Percentage of mice in the group ([4]; relapse phase, n=10): 10% | CFT: Percentage of mice in the group ([4]; relapse phase, n=10): 10% | CHLP: Percentage of mice in the group ([4]; relapse phase, n=10): 0% | HLH: Percentage of mice in the group ([4]; relapse phase, n=10): 30% | PFT: Percentage of mice in the group ([4]; relapse phase, n=10): 10% | PHLP: Percentage of mice in the group ([4]; relapse phase, n=10): 0% | effect on the neurological course of CREAE ([5]; Biozzi mouse, Miglyol 810 vehicle, 1000 mg/kg/day): clearly reduced the intensity of neurological deficits during both acute and relapsing phases | No. of diseased mice ([5]; acute phase, Biozzi mouse, Miglyol 810 vehicle (90% dilution), 1000 mg/kg/day, up to 43 days PI): 10/11 | Mean day of symptom loss [5, 11]: 25.9 ± 2.0 days | Mean day of symptom onset [5, 11]: 17.9 ± 2.6 days | Mean duration of symptoms [5, 11]: 6.9 ± 3.0 days | Number of dead mice [5, 11]: 1/11 | AG: Percentage of mice in the group [5, 12]: 73% | CFT: Percentage of mice in the group [5, 12]: 82% | CHLP: Percentage of mice in the group [5, 12]: 36% | D (dead): Percentage of mice in the group [5, 12]: 9% | HLH: Percentage of mice in the group [5, 12]: 73% | IRR: Percentage of mice in the group [5, 12]: 82% | M (moribund): Percentage of mice in the group [5, 12]: 0% | PFT: Percentage of mice in the group [5, 12]: 91% | PHLP: Percentage of mice in the group [5, 12]: 46% | D (dead): Percentage of mice in the group ([5]; mouse, in vivo): 22% | M (moribund): Percentage of mice in the group ([5]; mouse, in vivo): 11% | Mean day of symptom loss [5, 13]: 39.8 ± 5.0 days | Mean day of symptom onset [5, 13]: 33.1 ± 4.9 days | Mean duration of symptoms [5, 13]: 7.0 ± 4.2 days | No. of diseased mice [5, 13]: 8/9 | Number of dead mice [5, 13]: 3/9 | AG: Percentage of mice in the group [5, 14]: 56% | CFT: Percentage of mice in the group [5, 14]: 67% | CHLP: Percentage of mice in the group [5, 14]: 44% | HLH: Percentage of mice in the group [5, 14]: 56% | IRR: Percentage of mice in the group [5, 14]: 67% | PFT: Percentage of mice in the group [5, 14]: 89% | PHLP: Percentage of mice in the group [5, 14]: 56% | CHLP: Number of animals showing symptoms/total ([6]; 750 mg/kg/day): 3/7 | FT: Number of animals showing symptoms/total ([6]; 750 mg/kg/day): 7/7 | HLH: Number of animals showing symptoms/total ([6]; 750 mg/kg/day): 7/7 | PHLP: Number of animals showing symptoms/total ([6]; 750 mg/kg/day): 4/7 | CHLP: Number of animals showing symptoms/total ([6]; 1000 mg/kg/day): 1/4 | FT: Number of animals showing symptoms/total ([6]; 1000 mg/kg/day): 4/4 | HLH: Number of animals showing symptoms/total ([6]; 1000 mg/kg/day): 4/4 | PHLP: Number of animals showing symptoms/total ([6]; 1000 mg/kg/day): 2/4 | effect on onset, incidence and severity of disease ([6]; 750 and 1000 mg/Kg body weight/day, compared to control groups): delayed the onset and clearly reduced the incidence and severity of disease | animals that experienced CHLP ([6]; high dose): 25% | animals that experienced PHLP ([6]; high dose): 50% | mean cumulative clinical scores ([6]; low and high dose (750 and 1000 mg/kg/day)): consistently lower than control values | animals that experienced CHLP ([6]; low dose): 43% | animals that experienced PHLP ([6]; low dose): 57% | Mean day of final symptom loss (±SD) ([6]; neat oil oral 750 mg/kg/day): 19.0 ± 0.8 days | Mean day of symptom onset (±SD) ([6]; neat oil oral 750 mg/kg/day): 11.3 ± 0.8 days | Number of dead/total ([6]; neat oil oral 750 mg/kg/day): 0/7 | Number diseased/total ([6]; neat oil oral 750 mg/kg/day): 7/7 | Mean day of final symptom loss (±SD) ([6]; neat oil oral 1000 mg/kg/day): 18.8 ± 1.3 days | Mean day of symptom onset (±SD) ([6]; neat oil oral 1000 mg/kg/day): 11.3 ± 0.5 days | Number of dead/total ([6]; neat oil oral 1000 mg/kg/day): 0/4 | Number diseased/total ([6]; neat oil oral 1000 mg/kg/day): 4/4 | miscibility of compositions with vehicle [7]: miscible in all proportions at room temperature
